# Experimental data taken from ChEMBL document CHEMBL6127102 (Bioorg Med Chem, 2024).
# The source made the active and inactive calls. The calls are words filed in the database; no cut-off is given here.
# Assays:
# [1] = tested on: MDA-MB-231; assay: Antitumor activity against human MDA-MB-231 cells xenografted in BALB/c nude mouse assessed as decrease in Ki-67 expression at 20 mg/kg, ip administered on every 2 days for 28 days by H and E staining based analysis; type: functional, organism-based; conditions: time 28.0 day
# [2] = tested on: MDA-MB-436; assay: Antitumor activity against BRCA 1-deficient human MDA-MB-436 cells incubated for 72 hrs by MTT assay; type: functional, cell-based; conditions: MDA-MB-436, 72 h
# [3] = Cytotoxicity against human MCF-10A cells incubated for 72 hrs by MTT assay; type: toxicity, cell-based
# [4] = tested on: HCC1937; assay: Antitumor activity against BRCA 1-deficient human HCC1937 cells incubated for 72 hrs by MTT assay; type: functional, cell-based; conditions: HCC1937, 72 h
# [5] = Toxicity in BALB/c nude mouse xenografted with human MDA-MB-231 cells assessed as drug tolerance at 20 mg/kg, ip administered on every 2 days for 28 days; type: organism-based; conditions: in vivo, 672 h, time 28 day
# [6] = tested on: MDA-MB-468; assay: Antitumor activity against human MDA-MB-468 cells harboring wild-type BRCA incubated for 72 hrs by MTT assay; type: functional, cell-based; conditions: MDA-MB-468, 72 h
# [7] = tested on: MDA-MB-231; assay: Antitumor activity against human MDA-MB-231 cells xenografted in BALB/c nude mouse assessed as increase in necrotic cells at 20 mg/kg, ip administered on every 2 days for 28 days by H and E staining based analysis; type: functional, organism-based; conditions: time 28.0 day
# [8] = tested on: MDA-MB-231; assay: Antitumor activity against human MDA-MB-231 cells harboring wild-type BRCA incubated for 72 hrs by MTT assay; type: functional, cell-based; conditions: MDA-MB-231, 72 h
# [9] = Toxicity in BALB/c nude mouse xenografted with human MDA-MB-231 cells assessed as body weight change at 20 mg/kg, ip administered on every 2 days for 28 days; type: organism-based; conditions: in vivo, 672 h, time 28 day
# [10] = tested on: MDA-MB-231; assay: Antitumor activity against human MDA-MB-231 cells xenografted in BALB/c nude mouse assessed as increase in apoptotic cells at 20 mg/kg, ip administered on every 2 days for 28 days by H and E staining based analysis; type: functional, organism-based; conditions: time 28.0 day
# [11] = tested on: MDA-MB-231; assay: Antitumor activity against human MDA-MB-231 cells xenografted in BALB/c nude mouse assessed as decrease in Ki-67 expression at 23 mg/kg, ip administered on every 2 days for 28 days in presence of Olaparib by H and E staining based analysis; type: functional, organism-based; conditions: time 28.0 day
# [12] = tested on: MDA-MB-231; assay: Antitumor activity against human MDA-MB-231 cells xenografted in BALB/c nude mouse at 23 mg/kg, ip administered on every 2 days for 28 days relative to control; type: functional; conditions: MDA-MB-231, 672 h, time 28 day, read-out: TGI
# [13] = tested on: MDA-MB-231; assay: Induction of DNA damage in human MDA-MB-231 cells assessed as increase in olive tail moments at 5 uM incubated for 24 hrs by Comet assay; type: functional, cell-based
# [14] = tested on: MDA-MB-231; assay: Antitumor activity against human MDA-MB-231 cells xenografted in BALB/c nude mouse assessed as increase in necrotic cells at 23 mg/kg, ip administered on every 2 days for 28 days by H and E staining based analysis; type: functional, organism-based; conditions: time 28.0 day
# [15] = Toxicity in BALB/c nude mouse xenografted with human MDA-MB-231 cells assessed as body weight change at 23 mg/kg, ip administered on every 2 days for 28 days in presence of Olaparib; type: organism-based; conditions: in vivo, 672 h, time 28 day
# [16] = tested on: MDA-MB-231; assay: […] activity in human MDA-MB-231 cells at 1 uM incubated for 24 hrs by wound healing assay; type: functional, cell-based
# [17] = tested on: MDA-MB-231; assay: Antitumor activity against human MDA-MB-231 cells xenografted in BALB/c nude mouse assessed as increase in apoptotic cells at 23 mg/kg, ip administered on every 2 days for 28 days by H and E staining based analysis; type: functional, organism-based; conditions: time 28.0 day
# [18] = tested on: MDA-MB-231; assay: Induction of apoptosis in human MDA-MB-231 cells at 5 uM incubated for 24 hrs by Annexin V-FITC/PI staining based flow cytometry relative to control; type: functional
# [19] = tested on: MDA-MB-231; assay: Antitumor activity against human MDA-MB-231 cells xenografted in BALB/c nude mouse assessed as increase in necrotic cells at 23 mg/kg, ip administered on every 2 days for 28 days in presence of Olaparib by H and E staining based analysis; type: functional, organism-based; conditions: time 28.0 day
# [20] = Toxicity in BALB/c nude mouse xenografted with human MDA-MB-231 cells assessed as body weight change at 23 mg/kg, ip administered on every 2 days for 28 days; type: organism-based; conditions: in vivo, 672 h, time 28 day
# [21] = tested on: MDA-MB-231; assay: Effect on total ERK1/2 in human MDA-MB-231 cells at 5 uM incubated for 24 hrs by Western blot analysis; type: functional, cell-based
# [22] = tested on: MDA-MB-231; assay: Effect on ERK1/2 phosphorylation in human MDA-MB-231 cells at 5 uM incubated for 24 hrs by Western blot analysis; type: functional, cell-based
# [23] = tested on: MDA-MB-231; assay: Induction of apoptosis in human MDA-MB-231 cells assessed as decrease in Bcl-2 level at 5 uM incubated for 24 hrs by Western blot analysis; type: functional, cell-based
# [24] = tested on: MDA-MB-231; assay: Antitumor activity against human MDA-MB-231 cells xenografted in BALB/c nude mouse assessed as decrease in Ki-67 expression at 23 mg/kg, ip administered on every 2 days for 28 days by H and E staining based analysis; type: functional, organism-based; conditions: time 28.0 day
# [25] = tested on: MDA-MB-231; assay: Induction of DNA damage in human MDA-MB-231 cells assessed as increase in gamma-H2AX level at 5 uM incubated for 24 hrs by immunofluorescence based analysis; type: functional, cell-based
# [26] = tested on: MDA-MB-231; assay: Induction of apoptosis in human MDA-MB-231 cells assessed as increase in cleaved caspase-3 level at 5 uM incubated for 24 hrs by Western blot analysis; type: functional, cell-based
# [27] = tested on: MDA-MB-231; assay: Anti-migration activity in human MDA-MB-231 cells at 1 uM incubated for 24 hrs by wound healing assay; type: functional, cell-based
# [28] = tested on: MDA-MB-231; assay: Effect on MEK phosphorylation in human MDA-MB-231 cells at 5 uM incubated for 24 hrs by Western blot analysis; type: functional, cell-based
# [29] = tested on: MDA-MB-231; assay: Induction of apoptosis in human MDA-MB-231 cells assessed as increase in cleaved caspase-9 level at 5 uM incubated for 24 hrs by Western blot analysis; type: functional, cell-based
# [30] = Toxicity in BALB/c nude mouse xenografted with human MDA-MB-231 cells assessed as drug tolerance at 23 mg/kg, ip administered on every 2 days for 28 days in presence of Olaparib; type: organism-based; conditions: in vivo, 672 h, time 28 day
# [31] = tested on: MDA-MB-231; assay: Antitumor activity against human MDA-MB-231 cells xenografted in BALB/c nude mouse assessed as increase in apoptotic cells at 23 mg/kg, ip administered on every 2 days for 28 days in presence of Olaparib by H and E staining based analysis; type: functional, organism-based; conditions: time 28.0 day
# [32] = tested on: MDA-MB-231; assay: Effect on total MEK in human MDA-MB-231 cells at 5 uM incubated for 24 hrs by Western blot analysis; type: functional, cell-based
# [33] = tested on: MDA-MB-231; assay: Induction of apoptosis in human MDA-MB-231 cells as increase in red fluorescence at 5 uM incubated for 24 hrs by Calcein AM/PI staining based confocal microscopy; type: functional, cell-based
# [34] = tested on: MDA-MB-231; assay: Antitumor activity against human MDA-MB-231 cells xenografted in BALB/c nude mouse at 23 mg/kg, ip administered on every 2 days for 28 days in presence of Olaparib relative to control; type: functional; conditions: MDA-MB-231, 672 h, time 28 day, read-out: TGI
# [35] = Toxicity in BALB/c nude mouse xenografted with human MDA-MB-231 cells assessed as drug tolerance at 23 mg/kg, ip administered on every 2 days for 28 days; type: organism-based; conditions: in vivo, 672 h, time 28 day
# [36] = tested on: MDA-MB-231; assay: Induction of apoptosis in human MDA-MB-231 cells assessed as increase in cleaved PARP level at 5 uM incubated for 24 hrs by Western blot analysis; type: functional, cell-based
# [37] = tested on: MDA-MB-231; assay: Induction of apoptosis in human MDA-MB-231 cells assessed as increase in Bax level at 5 uM incubated for 24 hrs by Western blot analysis; type: functional, cell-based
# [38] = Induction of depolarization of mitochondrial membrane potential in human MDA-MB-231 cells at 5 uM incubated for 24 hrs by JC-1 staining based flow cytometry relative to control; type: functional
# [39] = tested on: MDA-MB-231; assay: Effect on RAF expression in human MDA-MB-231 cells at 5 uM incubated for 24 hrs by Western blot analysis; type: functional, cell-based
# [40] = tested on: MDA-MB-231; assay: Induction of ROS generation in human MDA-MB-231 cells at 5 uM incubated for 24 hrs by DCFH-DA staining based flow cytometric analysis; type: functional, cell-based
# [41] = tested on: MDA-MB-231; assay: Effect on CRAF expression in human MDA-MB-231 cells at 5 uM incubated for 24 hrs by Western blot analysis; type: functional, cell-based
smiles,measurement,setting,value
O=C(c1cc(Cc2n[nH]c(=O)c3ccccc23)ccc1F)N1CCN(C(=O)C2CC2)CC1 [OLAPARIB],Activity,[1],Active
same,IC50,[2],4.25 µM
same,IC50 at 72 h,[3],> 40 µM
same,IC50,[4],5.37 µM
same,Activity,[5],Non-Toxic
same,IC50,[6],14.8 µM
same,Activity,[7],Active
same,IC50,[8],25.5 µM
same,Activity,[9],Non-Toxic
same,Activity,[10],Active
COc1cc(OC)c(/C=C/S(=O)(=O)Cc2ccc(OC)c(NC(=O)CCC(=O)O)c2)c(OC)c1,IC50,[2],2.09 µM
same,IC50 at 72 h,[3],> 40 µM
same,IC50,[4],2.17 µM
same,IC50,[6],3.19 µM
same,IC50,[8],2.08 µM
COc1cc(OC)c(/C=C/S(=O)(=O)Cc2ccc(OC)c(NCCCC(=O)O)c2)c(OC)c1,Activity,[11],Active
same,inhibition in vivo at 23 mg/kg,[12],51.8%
same,IC50,[2],2.11 µM
same,Activity,[13],Active
same,Activity,[14],Active
same,Activity,[15],Non-Toxic
same,Activity,[16],Active
same,Activity,[17],Active
same,Activity,[18],31.1%
same,Activity,[19],Active
same,Activity,[20],Non-Toxic
same,IC50 at 72 h,[3],30.6 µM
same,Activity,[21],inactive
same,Activity,[22],Active
same,Activity,[23],Active
same,Activity,[24],Active
same,Activity,[25],Active
same,Activity,[26],Active
same,IC50,[4],1.08 µM
same,Activity,[27],Active
same,Activity,[28],Active
same,Activity,[29],Active
same,Activity,[30],Non-Toxic
same,Activity,[31],Active
same,Activity,[32],inactive
same,IC50,[6],2.33 µM
same,Activity,[33],Active
same,inhibition in vivo at 23 mg/kg,[34],56.7%
same,Activity,[35],Non-Toxic
same,Activity,[36],Active
same,IC50,[8],1.87 µM
same,Activity,[37],Active
same,Activity,[38],31.56%
same,Activity,[39],inactive
same,Activity,[40],Active
same,Activity,[41],Active
COc1cc(OC)c(/C=C/S(=O)(=O)Cc2ccc(OC)c(NC(=O)CCCC(=O)O)c2)c(OC)c1,IC50,[2],4.82 µM
same,IC50 at 72 h,[3],> 40 µM
same,IC50,[4],3.92 µM
same,IC50,[6],5.76 µM
same,IC50,[8],3.57 µM
COc1cc(OC)c(/C=C/S(=O)(=O)Cc2ccc(OC)c(NC(=O)CCCCC(=O)N3CCN(C(=O)c4cc(Cc5n[nH]c(=O)c6ccccc56)ccc4F)CC3)c2)c(OC)c1,IC50,[2],3.76 µM
same,IC50 at 72 h,[3],> 40 µM
same,IC50,[4],3.69 µM
same,IC50,[6],4.85 µM
same,IC50,[8],4.57 µM
COc1cc(OC)c(/C=C/S(=O)(=O)Cc2ccc(OC)c(NCC(=O)O)c2)c(OC)c1 [RIGOSERTIB],IC50,[2],0.25 µM
same,IC50 at 72 h,[3],18.4 µM
same,IC50,[4],0.33 µM
same,IC50,[6],0.45 µM
same,IC50,[8],0.23 µM
